# Reference: US20250304623A1, “PEPTIDES FOR INTRACELLULAR DELIVERY” (UNIVERSIDADE DE SANTIAGO DE COMPOSTELA, priority 2022, published 2025)
# *: point of attachment. NHNH2 = NN*
# What was measured:
# Format in all cases: cell-based
# [1] = tested on: A549 cells expressing EGFP; assay: EGFP-targeting siRNA delivery (GFP silencing vs siMOCK), A549; conditions: A549 cells
# Procedure: (§1) To generate an EGFP expressing HeLa cell line, HeLa cells were transfected with EGFP pDNA (pEGFP-C1, Clontech) and stable transfectants were selected with 400 μg/mL of G-418 (Millipore). Green clones were selected by epifluorescence microscopy and tested for EGFP expression stability through several passages. […] All other EGFP-expressing cell lines were obtained in a similar way from parent non-EGFP-expressing cell lines.
# Cells expressing EGFP were seeded in a 96 well plate the day before the experiment at a concentration of 50,000 cell/mL (100 μL/w) in DMEM+10% FBS+1% Gln-Abt. For robotic library screening, the delivery of an EGFP-targeting siRNA (EGFP: enhanced green fluorescent protein, Ambion® Silencer® GFP Positive Control siRNA (siGFP) (AM4626)) in six different cell lines expressing EGFP was performed. […] The mixture was shaken for 30 min at room temperature (rt) before the addition to the cells. The cell medium was aspirated, and cells were washed twice with PBS. Finally, 50 μL of the solution of siRNA/amphiphile complexes were added to the cells and incubated for 4 h. After transfection, the medium was replaced by 100 μL of fresh DMEM supplemented with 10% FBS. The fluorescence knockdown was quantified after 72 h in a plate reader, by comparison with cells transfected with a non-targeting siRNA control (siMOCK, Silencer™ Negative Control No. 1 siRNA (siMOCK) (AM4611)). EGFP knockdown was compared with Lipofectamine® RNAiMAX silencing efficiency (30-60% depending on cell line, defined with a numeric value in the below tables). All experiments were done in triplicate.
# (§2) Tables 1-7: RLuc (pDNA) or EGFP (mRNA) expression levels were normalized to Lipofectamine reagents (value=1) and expressed as fold-times signal increase. In the case of siRNA, the siRNA treated cells fluorescence was compared with siMOCK control fluorescence, while Cas9-RNP mediated knockout was measured against the fluorescence of untreated cells. In both siRNA and Cas9-RNP, values are expressed as % fluorescence reduction. Amphiphile concentration was 5 μM in all cases. All experiments were performed in triplicate.
# Tables 20-25 show the mean (triplicates) percentage of GFP-silencing, accounted by fluorescence intensity decrease relative to a non-targeting siRNA (siMOCK) control, measured after the transfection of siRNA by different amphiphiles at different concentrations in a variety of cell lines. Background values, accounted by untreated control cells, were subtracted for processing.
# [2] = tested on: A549 cells expressing EGFP; assay: Cas9-RNP delivery against EGFP (gene editing, plate reader), A549; conditions: A549 cells
# Procedure: as §1
# (§3) Cells expressing EGFP were seeded in a 96 well plate the day before the experiment at a concentration of 50,000 cell/mL (100 μL/w) in DMEM+10% FBS+1% Gln-Abt. For robotic library screening, the delivery of Cas9-RNP against EGFP (RNP designed to knock-out the gene encoding for the enhanced green fluorescent protein (EGFP)) was performed. For RNP assembly, 9.2 μL of crRNA and 9.2 μL of tracrRNA were mixed in 211.6 μL of Nuclease-Free Duplex Buffer (IDT), incubated for 5 min at 95° C. and slowly cooled at rt (see I. Lostalé-Seijo, et al. Peptide/Cas9 nanostructures for ribonucleoprotein cell membrane transport and gene edition, Chem. Sci., 2017). Cas9 protein was dissolved in DMEM at a final concentration of 4 μM and equal volumes of the RNA complex and Cas9 were mixed and incubated for 5 min at rt. 75 μL of the corresponding amphiphile concentrations were added to 5 μL of RNP at 2 μM. The mixture was shaken for 30 min at room temperature before the addition to the cells. The cell medium was aspirated, and cells were washed twice with PBS. Cells were covered with 30 μL of DMEM and 20 μL of the RNP/amphiphile complexes were added to the cells (final peptide concentrations=2.5, 5 and 10 μM; final Cas9-RNP concentration=50 nM) and incubated for 4 h. After the incubation, the medium was replaced by 100 μL of fresh DMEM supplemented with 10% FBS. The total EGFP fluorescence was quantified after 72 h in a plate reader (FIG. 2, Table 1 (right) and Table 6). All experiments were done in triplicate.
# as §2
# (§4) Tables 26-31 show the mean (triplicates) percentage of gene editing, accounted by GFP fluorescence intensity decrease (% of reduction), measured after the transfection of Cas9-RNP by different amphiphiles at different concentrations in a variety of cell lines. Background values, accounted by untreated control cells, were subtracted for processing.
# [3] = tested on: HCT116 cells expressing EGFP; assay: Cas9-RNP delivery against EGFP (gene editing, plate reader), HCT116
# Procedure: as §1
# as §3, with “triplicate. […]” for “triplicate.”
# as §4
Substance,"percentage of GFP-silencing relative to siMOCK ([1]; Dodecanal, 10 μM) [%]","percentage of GFP-silencing relative to siMOCK ([1]; Dodecanal, 15 μM) [%]","percentage of GFP-silencing relative to siMOCK ([1]; Myristoleyl, 10 μM) [%]","percentage of GFP-silencing relative to siMOCK ([1]; Myristoleyl, 15 μM) [%]","percentage of GFP-silencing relative to siMOCK ([1]; Oleyl, 5 μM) [%]","percentage of GFP-silencing relative to siMOCK ([1]; Oleyl, 15 μM) [%]","percentage of GFP-silencing relative to siMOCK ([1]; Petroselinyl, 10 μM) [%]","percentage of gene editing, GFP fluorescence intensity decrease (% of reduction) ([2]; Dodecanal, 10 μM) [%]","percentage of gene editing, GFP fluorescence intensity decrease (% of reduction) ([2]; Myristoleyl, 5 μM) [%]","percentage of gene editing, GFP fluorescence intensity decrease (% of reduction) ([2]; Myristoleyl, 10 μM) [%]","percentage of gene editing, GFP fluorescence intensity decrease (% of reduction) ([2]; Oleyl, 5 μM) [%]","percentage of gene editing, GFP fluorescence intensity decrease (% of reduction) ([2]; Oleyl, 15 μM) [%]","percentage of gene editing, GFP fluorescence intensity decrease (% of reduction) ([2]; Palmitoleyl, 5 μM) [%]","percentage of gene editing, GFP fluorescence intensity decrease (% of reduction) ([2]; Palmitoleyl, 10 μM) [%]","percentage of gene editing, GFP fluorescence intensity decrease (% of reduction) ([2]; Palmitoleyl, 15 μM) [%]","percentage of gene editing, GFP fluorescence intensity decrease (% of reduction) ([2]; Petroselinyl, 5 μM) [%]","percentage of gene editing, GFP fluorescence intensity decrease (% of reduction) ([3]; Dodecanal, 15 μM) [%]","percentage of gene editing, GFP fluorescence intensity decrease (% of reduction) ([3]; Myristoleyl, 15 μM) [%]","percentage of gene editing, GFP fluorescence intensity decrease (% of reduction) ([3]; Oleyl, 5 μM) [%]","percentage of gene editing, GFP fluorescence intensity decrease (% of reduction) ([3]; Palmitoleyl, 5 μM) [%]",also measured
"Ac-RHLK*RLK*RRLK*RL-NH2 (Ac-RHLKRLKRRLKRL-NH2; not fully specified (residues 4, 7, 11); printed as Ac-RHLK*RLK*RRLK*RL-NH2; also: linker on K* not given here) [13(Arg-His)]",28,18,17,5,23,15,20,18,5,9,20,15,15,10,22,29,16,29,5,30,"percentage of GFP-silencing relative to siMOCK ([1]; Oleyl, 10 μM): 22%; percentage of GFP-silencing relative to siMOCK ([1]; Palmitoleyl, 15 μM): 14%; percentage of GFP-silencing relative to siMOCK ([1]; Petroselinyl, 15 μM): 11%; percentage of gene editing, GFP fluorescence intensity decrease (% of reduction) ([2]; Dodecanal, 5 μM): 27%; percentage of gene editing, GFP fluorescence intensity decrease (% of reduction) ([3]; Dodecanal, 5 μM): 4%; percentage of gene editing, GFP fluorescence intensity decrease (% of reduction) ([3]; Dodecanal, 10 μM): 5%; percentage of gene editing, GFP fluorescence intensity decrease (% of reduction) ([3]; Myristoleyl, 5 μM): −7%; percentage of gene editing, GFP fluorescence intensity decrease (% of reduction) ([3]; Palmitoleyl, 10 μM): 22%; percentage of gene editing, GFP fluorescence intensity decrease (% of reduction) ([3]; Palmitoleyl, 15 μM): 9%; percentage of gene editing, GFP fluorescence intensity decrease (% of reduction) ([3]; Petroselinyl, 10 μM): 6%"
"Ac-RK*LRK*K*L-NH2 (Ac-RK(NHNH2)LRK(NHNH2)K(NHNH2)L-NH2; not fully specified; printed as Ac-RK*LRK*K*L-NH2; also: K*2,K*5,K*6: native or modified lysine (ε-amide to a linker)) [Peptide 7.3]",22,19,–,–,3,7,13,−2,7,10,−9,−1,27,33,13,23,−11,4,−7,−12,"percentage of GFP-silencing relative to siMOCK ([1]; Dodecanal, 5 μM): 7%; percentage of gene editing, GFP fluorescence intensity decrease (% of reduction) ([2]; Dodecanal, 15 μM): 1%; percentage of gene editing, GFP fluorescence intensity decrease (% of reduction) ([2]; Myristoleyl, 15 μM): 12%; percentage of gene editing, GFP fluorescence intensity decrease (% of reduction) ([2]; Petroselinyl, 10 μM): 22%; percentage of gene editing, GFP fluorescence intensity decrease (% of reduction) ([2]; Petroselinyl, 15 μM): 7%; percentage of gene editing, GFP fluorescence intensity decrease (% of reduction) ([3]; Oleyl, 10 μM): 4%; percentage of gene editing, GFP fluorescence intensity decrease (% of reduction) ([3]; Palmitoleyl, 10 μM): 17%; percentage of gene editing, GFP fluorescence intensity decrease (% of reduction) ([3]; Palmitoleyl, 15 μM): 35%; percentage of gene editing, GFP fluorescence intensity decrease (% of reduction) ([3]; Petroselinyl, 5 μM): 39%; percentage of gene editing, GFP fluorescence intensity decrease (% of reduction) ([3]; Petroselinyl, 10 μM): 34%"
"Ac-RK*LRRK*L-NH2 (Ac-RK(NHNH2)LRRK(NHNH2)L-NH2; not fully specified; printed as Ac-RK*LRRK*L-NH2; also: K*2,K*6: native or modified lysine (ε-amide to a linker)) [Peptide 7.2]",11,8,14,16,–,–,–,−3,3,7,–,–,–,–,–,–,−18,–,–,–,"percentage of GFP-silencing relative to siMOCK ([1]; Dodecanal, 5 μM): 5%; percentage of GFP-silencing relative to siMOCK ([1]; Myristoleyl, 5 μM): 8%; percentage of gene editing, GFP fluorescence intensity decrease (% of reduction) ([2]; Dodecanal, 15 μM): −13%; percentage of gene editing, GFP fluorescence intensity decrease (% of reduction) ([2]; Myristoleyl, 15 μM): 7%"
